Values joined by “and” are separate entries in the source; they are usually repeats but may differ in a detail not shown here. Equal entries are not always repeated. Toxic doses and inconclusive results are not listed. Rule for the calls: active = survival T/C of 150% or more; inactive = T/C below 125% in these data.
System: AKR/Lw mice, AKR lymphoma ip, median survival T/C
Assay: NCI In Vivo Anticancer Drug Screen. Data for tumor model Lymphoma AKR (Transplanted) (intraperitoneal) in AKR/Lw mice
Conditions: endpoint: median survival time, higher = longer survival
Description: The antitumor activity of compounds was measured in mice bearing transplantable tumors. Survival or tumor size were measured and the results are expressed as the measurement made in the treated group (T) divided by the measurement made in the vehicle treated control group (C). The tumor model used in this assay is Lymphoma AKR (Transplanted) (intraperitoneal) in AKR/Lw mice

[1] = dose: 25.0 mg/kg/injection, schedule: Q01DX001 (ip), vehicle: saline
[2] = dose: 100.0 mg/kg/injection, schedule: Q01DX001 (ip), vehicle: Klucel (hydroxypropylcellulose) (HPC)
[3] = dose: 200.0 mg/kg/injection, schedule: Q01DX001 (ip), vehicle: Klucel (hydroxypropylcellulose) (HPC)

Measured: T/C

CN(C)C(=O)c1cccc(COc2ccc(N3C(N)=NC(N)=NC3(C)C)cc2Cl)c1
inactive: dose: 0.25 mg/kg/injection, schedule: Q04DX003 (ip), vehicle: saline 105 % of control | dose: 0.5 mg/kg/injection, schedule: Q04DX003 (ip), vehicle: saline 108 % of control | dose: 1.0 mg/kg/injection, schedule: Q04DX003 (ip), vehicle: saline 97 % of control | dose: 1.2 mg/kg/injection, schedule: Q01DX009 (ip), vehicle: saline 100 % of control | dose: 1.25 mg/kg/injection, schedule: Q01DX009 (ip), vehicle: saline 106 % of control | dose: 2.0 mg/kg/injection, schedule: Q04DX003 (ip), vehicle: saline 114 % of control | dose: 3.1 mg/kg/injection, schedule: Q01DX009 (ip), vehicle: saline 100 % of control | dose: 4.0 mg/kg/injection, schedule: Q04DX003 (ip), vehicle: saline 114 % of control | dose: 6.2 mg/kg/injection, schedule: Q01DX009 (ip), vehicle: saline 94 % of control and 97 % of control and 108 % of control | dose: 8.0 mg/kg/injection, schedule: Q04DX003 (ip), vehicle: water 100 % of control | dose: 10.0 mg/kg/injection, schedule: Q04DX003 (ip), vehicle: saline 105 % of control | dose: 12.0 mg/kg/injection, schedule: Q01DX001 (ip), vehicle: saline 112 % of control | dose: 15.0 mg/kg/injection, schedule: Q01DX009 (ip), vehicle: saline 112 % of control | dose: 16.0 mg/kg/injection, schedule: Q04DX003 (ip), vehicle: water 109 % of control | dose: 18.0 mg/kg/injection, schedule: Q04DX003 (ip), vehicle: saline 109 % of control | [1] 112 % of control | dose: 32.0 mg/kg/injection, schedule: Q04DX003 (ip), vehicle: water 120 % of control | dose: 35.0 mg/kg/injection, schedule: Q04DX003 (ip), vehicle: saline 116 % of control and 120 % of control | dose: 37.5 mg/kg/injection, schedule: Q04DX003 (ip), vehicle: saline 116 % of control | dose: 64.0 mg/kg/injection, schedule: Q04DX003 (ip), vehicle: water 105 % of control

CCCCC(C(=O)OCC)C(CCC1CCCCC1)(C(=O)OCC)C(=O)OCC (stereo unspecified)
inactive: [2] 110 % of control | [3] 104 % of control

COC(=O)C1(C)CCC(c2ccc(C)cc2)=C(CC(=O)O)C1 (stereo unspecified)
inactive: dose: 100.0 mg/kg/injection, schedule: Q01DX001 (ip), vehicle: saline 97 % of control | dose: 200.0 mg/kg/injection, schedule: Q01DX001 (ip), vehicle: saline 94 % of control | dose: 400.0 mg/kg/injection, schedule: Q01DX001 (ip), vehicle: saline 94 % of control

CN(C)S(=O)(=O)Nc1cc(Cl)c(NS(=O)(=O)N(C)C)cc1Cl
inactive: [2] 93 % of control | [3] 106 % of control | dose: 400.0 mg/kg/injection, schedule: Q01DX001 (ip), vehicle: Klucel (hydroxypropylcellulose) (HPC) 100 % of control

COC(=O)c1ccc(NCC(C)(C)N)cc1
inactive: dose: 12.5 mg/kg/injection, schedule: Q01DX001 (ip), vehicle: saline 100 % of control | [1] 94 % of control | dose: 50.0 mg/kg/injection, schedule: Q01DX001 (ip), vehicle: saline 88 % of control

— PubChem BioAssay AID190 (DTP/NCI, 2004)
